Data as given in ChEMBL document CHEMBL1150175, “Studies on the activities of tannins and related compounds, X. Effects of caffeetannins and related compounds on arachidonate metabolism in human polymorphonuclear leukocytes” (J Nat Prod, 1987).
Activity calls are given as the source filed them. The calls are words filed in the database; no cut-off is given here.

Legend:
Homo sapiens [1] = species on record: Homo sapiens; test: Inhibition of A23187-induced 5HETE formation in human polymorphonuclear leukocytes at 100 to 1000 uM; format: functional, cell-based
[2] = Inhibition of A23187-induced LTB4 formation in human polymorphonuclear leukocytes; format: functional, cell-based
[3] = Inhibition of A23187-induced 12-hydroxy-5,8,10-heptadecatrienoic acid formation in human polymorphonuclear leukocytes; format: functional, cell-based
Homo sapiens [4] = species on record: Homo sapiens; test: Enhancement of PGE2 formation in A-23187-stimulated human polymorphonuclear leukocytes at 100 uM; format: functional
[5] = Inhibition of A23187-induced 5HETE formation in human polymorphonuclear leukocytes; format: functional, cell-based
Homo sapiens [6] = species on record: Homo sapiens; test: Inhibition of A23187-induced LTB4 formation in human polymorphonuclear leukocytes at 100 to 1000 uM; format: functional, cell-based
[7] = Cytotoxicity against human polymorphonuclear leukocytes assessed as occurrence of cell suspension or lactate dehydrogenase release at 1 to 1000 uM
[8] = Formation of PGE2 in A-23187-stimulated human polymorphonuclear leukocytes at 1000 uM relative to control; format: functional
[9] = Formation of PGE2 in A-23187-stimulated human polymorphonuclear leukocytes at 100 uM relative to control; format: functional
[10] = Formation of PGE2 in A-23187-stimulated human polymorphonuclear leukocytes at 10 uM relative to control; format: functional
[11] = Formation of 15HETE in A-23187-stimulated human polymorphonuclear leukocytes at 1000 uM relative to control; format: functional
Homo sapiens [12] = species on record: Homo sapiens; test: Inhibition of A23187-induced 12-hydroxy-5,8,10-heptadecatrienoic acid formation in human polymorphonuclear leukocytes at 100 to 1000 uM; format: functional, cell-based
Homo sapiens [13] = species on record: Homo sapiens; test: Inhibition of A23187-induced 15HETE formation in human polymorphonuclear leukocytes at 100 to 1000 uM; format: functional, cell-based
[14] = Inhibition of A23187-induced 15HETE formation in human polymorphonuclear leukocytes; format: functional, cell-based
Homo sapiens [15] = species on record: Homo sapiens; test: Enhancement of 15HETE formation in A-23187-stimulated human polymorphonuclear leukocytes at 10 to 100 uM; format: functional
Homo sapiens [16] = species on record: Homo sapiens; test: Enhancement of PGE2 formation in A-23187-stimulated human polymorphonuclear leukocytes at 100 to 1000 uM; format: functional
[17] = Formation of 15HETE in A-23187-stimulated human polymorphonuclear leukocytes at 100 uM relative to control; format: functional
Homo sapiens [18] = species on record: Homo sapiens; test: Enhancement of PGE2 formation in A-23187-stimulated human polymorphonuclear leukocytes at 10 to 100 uM; format: functional
[19] = Formation of 15HETE in A-23187-stimulated human polymorphonuclear leukocytes at 10 uM relative to control; format: functional
Homo sapiens [20] = species on record: Homo sapiens; test: Inhibition of A23187-induced 5HETE formation in human polymorphonuclear leukocytes at 1 to 1000 uM; format: functional, cell-based
Homo sapiens [21] = species on record: Homo sapiens; test: Inhibition of A23187-induced 12-hydroxy-5,8,10-heptadecatrienoic acid formation in human polymorphonuclear leukocytes at 1000 uM; format: functional, cell-based
[22] = Formation of 12-hydroxy-5,8,10-heptadecatrienoic acid in A-23187-stimulated human polymorphonuclear leukocytes at 1000 uM relative to control; format: functional
Homo sapiens [23] = species on record: Homo sapiens; test: Inhibition of A23187-induced PGE2 formation in human polymorphonuclear leukocytes at 1 to 100 uM; format: functional, cell-based
Homo sapiens [24] = species on record: Homo sapiens; test: Inhibition of A23187-induced 12-hydroxy-5,8,10-heptadecatrienoic acid formation in human polymorphonuclear leukocytes at 1 to 100 uM; format: functional, cell-based

| Compound | IC50 ([2]; Homo sapiens, read-out: IC50) [µM] | IC50 [3] [µM] | IC50 ([5]; Homo sapiens, read-out: IC50) [µM] | inhibition (Homo sapiens [1]) | Activity (Homo sapiens [4]) | inhibition (Homo sapiens [6]) | Activity [7] | Activity [8] [%] | Activity [11] [%] | Activity (Homo sapiens [16]) | Activity [17] [%] | other results |
| --- | --- | --- | --- | --- | --- | --- | --- | --- | --- | --- | --- | --- |
| O=C(/C=C/c1ccc(O)c(O)c1)O[C@H]1[C@H](O)C[C@](O)(C(=O)O)C[C@H]1OC(=O)/C=C/c1ccc(O)c(O)c1 | 443 | 740 | 601 | Active | Active | Active | Non-toxic | 79.5 | 56.9 | – | – | Activity [9]: 155%; Activity [10]: 126% |
| O=C(O)CC(OC(=O)/C=C/c1ccc(O)c(O)c1)C(=O)O (centres undefined) [CAFFEOYLMALIC ACID] | 548 | 796 | 918 | Active | – | Active | Non-toxic | – | 114.8 | Active | 141.5 | Activity [19]: 106.3% |
| O=C(/C=C/c1ccc(O)c(O)c1)O[C@@H]1C[C@](O)(C(=O)O)C[C@@H](O)[C@H]1O [CHLOROGENIC ACID] | – | – | – | – | – | – | Non-toxic | – | – | – | – | – |
| COc1ccc2c(c1)c(CC(=O)O)c(C)n2C(=O)c1ccc(Cl)cc1 | – | – | – | – | – | – | – | – | – | – | – | inhibition (Homo sapiens [23]): Active; inhibition (Homo sapiens [24]): Active |

Continued by falling IC50 ([2]; Homo sapiens, read-out: IC50), values first:

| IC50 ([2]; Homo sapiens, read-out: IC50) [µM] | IC50 [3] [µM] | IC50 ([5]; Homo sapiens, read-out: IC50) [µM] | Compound | inhibition (Homo sapiens [1]) | Activity (Homo sapiens [4]) | inhibition (Homo sapiens [6]) | Activity [7] | Activity [8] [%] | Activity [11] [%] | Activity (Homo sapiens [16]) | Activity [17] [%] | other results |
| --- | --- | --- | --- | --- | --- | --- | --- | --- | --- | --- | --- | --- |
| 433 | – | 873 | O=C(/C=C/c1ccc(O)c(O)c1)OC(C(=O)O)C(O)C(=O)O (centres undefined) [CAFFEOYLTARTARIC ACID] | Active | – | Active | Non-toxic | – | 55 | Active | – | Activity [22]: 57.9% |
| 411 | – | 276 | O=C(O)/C=C/c1ccc(O)c(O)c1 [CAFFEIC ACID] | – | – | – | Non-toxic | – | 96.5 | Active | 153.7 | Activity (Homo sapiens [15]): Active; IC50 [2]: Dose-dependent effect; Activity (Homo sapiens [18]): Active; Activity [19]: 136.7%; inhibition (Homo sapiens [20]): Active; inhibition (Homo sapiens [21]): Active |
| 92.5 | 80 | 749 | O=C(/C=C/c1ccc(O)c(O)c1)O[C@@H]1[C@H](O)C[C@@](O)(C(=O)O)C[C@H]1OC(=O)/C=C/c1ccc(O)c(O)c1 | Active | Active | Active | Non-toxic | – | – | – | – | – |
| 85.9 | 902 | 666 | O=C(/C=C/c1ccc(O)c(O)c1)O[C@@H]1C[C@](O)(C(=O)O)C[C@@H](OC(=O)/C=C/c2ccc(O)c(O)c2)[C@H]1O | Active | Active | Active | Non-toxic | 97.5 | 50.9 | – | 121.1 | Activity [9]: 160.8% |
| 55.6 | 459 | 214 | O=C(/C=C/c1ccc(O)c(O)c1)O[C@H](Cc1ccc(O)c(O)c1)C(=O)O [ROSMARINIC ACID] | – | Active | – | Non-toxic | 48 | – | – | – | IC50 [2]: Dose-dependent effect; Activity [10]: 143.4%; inhibition (Homo sapiens [12]): Active; IC50 [5]: Dose-dependent effect; inhibition (Homo sapiens [13]): Active; IC50 [14]: 455 µM |
